Consider 14 molecules from US20150313922A1, “COMPOSITIONS AND METHODS FOR THE TREATMENT OF CANCERS ASSOCIATED WITH A DEFICIENCY IN THE MRE11/RAD50/NBS1 DNA DAMAGE REPAIR COMPLEX” (SLOAN-KETTERING INSTITUTE FOR CANCER RESEARCH, priority 2012, published 2015).

For experiment [1], the system named is murine embryonic fibroblast cells that express a low level of Mre11 (Mre11-impaired; Mre11^ATLD1/ATLD1). Description: Colony formation of Mre11-impaired vs WT murine embryonic fibroblasts exposed to DNA damaging agents. It counts as cell-based.
Experiment [2] has as its system cancer cells exhibiting reduced MRN complex formation and/or functionality. In words: Growth and/or survival inhibition of cancer cells with reduced MRN complex by clastogenic agents. It counts as cell-based.
Setting [3] is: cancer cells with reduced MRN complex formation and/or functionality, no experiment described.

The structures appear in SMILES notation. Like-named read-outs stand apart in the source and are kept apart here.

As for `COc1cccc2c1C(=O)c1c(O)c3c(c(O)c1C2=O)C[C@@](O)(C(=O)CO)C[C@@H]3O[C@H]1C[C@H](N)[C@H](O)[C@H](C)O1` [Adriamycin, doxorubicin], in experiment [1] (Mre11^ATLD1/ATLD1 vs WT murine embryonic fibroblasts, mean of triplicate samples), the “susceptibility (proportion colony formation vs. concentration) of Mre11-impaired cells as compared to WT cells” value was “equivalent response”. The “growth and/or survival inhibition of a cell having a reduced level of MRN complex formation and/or functionality” value in experiment [1] (summary statement of the description) was “no effect”. For the same molecule, in experiment [2] (setting [3]), the “sensitivity to growth and/or survival inhibition” value was “do not exhibit increased sensitivity”.

As to `CC[C@@]1(O)C(=O)OCc2c1cc1n(c2=O)Cc2cc3ccccc3nc2-1` [campththecin, camptothecin], the “sensitivity to growth and/or survival inhibition” value in experiment [2] (setting [3]) is “increased sensitivity”.

As for `N.N.O=C([O-])C1(C(=O)[O-])CCC1.[Pt+2]` [carboplatin], the “sensitivity to growth and/or survival inhibition” value in experiment [2] (setting [3]) is listed as “increased sensitivity”.

In the case of `N.N.[Cl][Pt][Cl]` [cisplatin], the “sensitivity to growth and/or survival inhibition” value in experiment [2] (setting [3]) is reported as “increased sensitivity”.

For `O=P1(N(CCCl)CCCl)NCCCO1` (stereo not shown) [cyclophosphamide], the “sensitivity to growth and/or survival inhibition” value in experiment [2] is reported as “increased sensitivity”.

For the molecule `COc1cccc2c1C(=O)c1c(O)c3c(c(O)c1C2=O)C[C@@](O)(C(C)=O)C[C@@H]3O[C@H]1C[C@H](N)[C@H](O)[C@H](C)O1` [daunorubicin], the “sensitivity to growth and/or survival inhibition” value in experiment [2] (setting [3]) is recorded as “do not exhibit increased sensitivity”.

Regarding `COc1cccc2c1C(=O)c1c(O)c3c(c(O)c1C2=O)C[C@@](O)(C(=O)CO)C[C@@H]3O[C@H]1C[C@H](N)[C@@H](O)[C@H](C)O1` [epirubicin], the “sensitivity to growth and/or survival inhibition” value in experiment [2] (setting [3]) was “do not exhibit increased sensitivity”.

Consider `CC(=O)[C@]1(O)Cc2c(O)c3c(c(O)c2[C@@H](O[C@H]2C[C@H](N)[C@H](O)[C@H](C)O2)C1)C(=O)c1ccccc1C3=O` [idarubicin], for which the “sensitivity to growth and/or survival inhibition” value in experiment [2] (setting [3]) is “do not exhibit increased sensitivity”.

As to `CCc1c2c(nc3ccc(OC(=O)N4CCC(N5CCCCC5)CC4)cc13)-c1cc3c(c(=O)n1C2)COC(=O)[C@]3(O)CC` [irinotecan], the “sensitivity to growth and/or survival inhibition” value in experiment [2] (setting [3]) is given as “increased sensitivity”.

As for `COS(C)(=O)=O` [methymethanesulfate, methyl methanesulfonate], the “sensitivity to growth and/or survival inhibition” value in experiment [2] (setting [3]) is reported as “increased sensitivity”.

Turning to `CO[C@@]12[C@H](COC(N)=O)C3=C(C(=O)C(C)=C(N)C3=O)N1C[C@@H]1N[C@@H]12` [mitomycin C], the “sensitivity to growth and/or survival inhibition” value in experiment [2] (setting [3]) is given as “increased sensitivity”.

Turning to `O=C1c2c(O)ccc(O)c2C(=O)c2c(NCCNCCO)ccc(NCCNCCO)c21` [mitoxantrone], the “sensitivity to growth and/or survival inhibition” value in experiment [2] (setting [3]) is on record as “do not exhibit increased sensitivity”.

As for `CC[C@@]1(O)C(=O)OCc2c1cc1n(c2=O)Cc2cc3c(CN(C)C)c(O)ccc3nc2-1` [topotecan], the “sensitivity to growth and/or survival inhibition” value in experiment [2] (setting [3]) is listed as “increased sensitivity”.

For the molecule `CCCCC(=O)OCC(=O)[C@]1(O)Cc2c(O)c3c(c(O)c2[C@@H](O[C@H]2C[C@H](NC(=O)C(F)(F)F)[C@H](O)[C@H](C)O2)C1)C(=O)c1c(OC)cccc1C3=O` [valrubicin], in experiment [2] (setting [3]), the “sensitivity to growth and/or survival inhibition” value is on record as “do not exhibit increased sensitivity”.
